Experimental data as given in PubChem BioAssay AID1963848 (Molecular Pharmacology Branch, DTP, NCI, 2024).
Where “and” joins values, the source holds several entries; their conditions need not be identical. Equal entries are not always repeated.

Tested on: 379773-124-R-J2-PDC spheroid viability
Assay: Anticancer human tumor 379773-124-R-J2-PDC patient-derived endometrial carcinoma cell line growth inhibition [POLQ]
Conditions: spheroids with HUVEC and MSC; for viability, T/C: stronger effect = lower value
Procedure: Multicellular complex tumor spheroid response to Polymerase (POL) inhibitors (novobiocin, ART-558, RP6685) in combination with a variety of drugs and investigational agents in selected tumor cell lines
The POL inhibitors (novobiocin, ART-558, and RP6685) were evaluated both individually and in combination with standard of care and investigational anticancer small molecules within a complex spheroid model of solid tumors. . Complex spheroids include a stromal component modeled by human endothelial cells (HUVEC) and fibroblasts modeled by human mesenchymal stem cells (MSCs). The concentration ranges selected for each drug and investigational agent were based upon clinically achievable concentrations if the clinical Cmax of the agent was known.
Compounds. The drugs and investigational agents: novobiocin (NSC847541), ART-558 (NSC835418), RP-6685 (NSC848927), peposertib (NSC802822), ceralasertib (NSC780249), elimusertib (NSC800525), camonsertib (NSC841442), AZD-1390 (NSC803789), olaparib (NSC753686), talazoparib (NSC767125), rucaparib (NSC756644), sotorasib (NSC818433), MRTX-1133 (NSC836407), SN-38 (NSC673596), topotecan (NSC609699), epotoside (NSC141540), doxorubicin (NSC123127), gemcitabine (NSC613327), 5-fluorouracil (NSC19893), paclitaxel (NSC125973), vemurafenib (NSC761431), MSA-2 (NSC828583), SN-011 (NSC837082), adavosertib (NSC754352), prexasertib (NSC758257), carboplatin (NSC241240) and oxaliplatin (NSC266046), were obtained from the National Cancer Institute (NCI) Developmental Therapeutics Program Chemical Repository (21). The FDA-approved anticancer drug set is available from the Developmental Therapeutics Program at https://dtp.cancer.gov/organization/dscb/obtaining/. […] The stock solutions were prepared in dimethyl sulfoxide (DMSO, Sigma-Aldrich, St. Louis, MO, cat. D2650), except for the platinum compounds which were prepared in saline (Quality Biological, Gaithersburg, MD, cat. 114-055-101), at 800-fold the tested concentration and stored at -70 degrees C prior to their use. All drugs and investigational agents were tested over a range starting from a high concentration at or near the clinical Cmax and decreasing in half-log increments. If the clinical Cmax for an agent had not been determined, the highest concentration tested was 10 microM, except for SN-38, which was tested at a high concentration of 1 microM.
Cell Culture. All cells were maintained in an incubator at 37 degrees C and 5% CO2 with 95% humidity. The PDC lines were cultured according to standard operating procedures established by the NCI PDMR (https://pdmr.cancer.gov). Table 3 of the manuscript, lists the cell lines along with the number of the three cell types plated to form the mct-spheroids and media for tumor cell growth. After thawing, all PDC lines, except 997537-175-T-J1-PDC and 415267-285-R-J2-PDC, were cultured in Matrigel-coated flasks prepared with a working solution of 1X Ham's F-12 nutrient mix, without supplementation (Thermo Fisher Scientific, cat. 11765054), 100 U/mL penicillin-streptomycin (Thermo Fisher Scientific, cat. 15140122), and 2.5% Matrigel (Corning Inc., Corning, NY, cat. 354248) for the first three passages. The two PDC lines 997537-175-T-J1-PDC and 415267-285-R-J2-PDC were cultured on uncoated flasks. The 857933-349-R-J2-PDC line was cultured in 6C/Colon 1B media containing advanced DMEM/F-12 (Thermo Fisher Scientific, cat. 12634028), 10 mM HEPES (Thermo Fisher Scientific, cat. 15630080), 1X GlutaMAX supplement (Thermo Fisher Scientific, cat. 35050061), 0.1 mg/mL primocin (InvivoGen, San Diego, CA, cat. ant-pm-2), 10% defined fetal bovine serum, heat inactivated (HyClone Laboratories Inc., Logan, UT, cat. SH30070.03HI), 50% L-WRN conditioned media (ATCC, cat. CRL-3276), 1.25 mM N-Acetyl-L-cysteine (Sigma-Aldrich, cat. A9165), 10 mM nicotinamide (Sigma-Aldrich, cat. N0636), 1X B-27 supplement (Thermo Fisher Scientific, cat. 17504044), 1X N-2 supplement (Thermo Fisher Scientific, cat. […]

[1] = curve of first compound, second compound 0.0316 µM
[2] = curve of first compound, second compound 0.1 µM
[3] = curve of first compound, second compound 0.316 µM
[4] = curve of first compound, second compound 1 µM
[5] = curve of first compound, second compound 3.16 µM
[6] = curve of first compound, second compound 10 µM
[7] = second compound 0.0316 µM, first compound 0.0316 µM
[8] = second compound 0.0316 µM, first compound 0.1 µM
[9] = second compound 0.0316 µM, first compound 0.316 µM
[10] = second compound 0.0316 µM, first compound 1 µM
[11] = second compound 0.0316 µM, first compound 3.16 µM
[12] = second compound 0.0316 µM, first compound 10 µM
[13] = second compound 0.1 µM, first compound 0.0316 µM
[14] = second compound 0.1 µM, first compound 0.1 µM
[15] = second compound 0.1 µM, first compound 0.316 µM
[16] = second compound 0.1 µM, first compound 1 µM
[17] = second compound 0.1 µM, first compound 3.16 µM
[18] = second compound 0.1 µM, first compound 10 µM
[19] = second compound 0.316 µM, first compound 0.0316 µM
[20] = second compound 0.316 µM, first compound 0.1 µM
[21] = second compound 0.316 µM, first compound 0.316 µM
[22] = second compound 0.316 µM, first compound 1 µM
[23] = second compound 0.316 µM, first compound 3.16 µM
[24] = second compound 0.316 µM, first compound 10 µM
[25] = second compound 1 µM, first compound 0.0316 µM
[26] = second compound 1 µM, first compound 0.1 µM
[27] = second compound 1 µM, first compound 0.316 µM
[28] = second compound 1 µM, first compound 1 µM
[29] = second compound 1 µM, first compound 3.16 µM
[30] = second compound 1 µM, first compound 10 µM
[31] = second compound 3.16 µM, first compound 0.0316 µM
[32] = second compound 3.16 µM, first compound 0.1 µM
[33] = second compound 3.16 µM, first compound 0.316 µM
[34] = second compound 3.16 µM, first compound 1 µM
[35] = second compound 3.16 µM, first compound 3.16 µM
[36] = second compound 3.16 µM, first compound 10 µM
[37] = second compound 10 µM, first compound 0.0316 µM
[38] = second compound 10 µM, first compound 0.1 µM
[39] = second compound 10 µM, first compound 0.316 µM
[40] = second compound 10 µM, first compound 1 µM
[41] = second compound 10 µM, first compound 3.16 µM
[42] = second compound 10 µM, first compound 10 µM
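Further: spheroids exposed to drugs for seven days before readout.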
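Wherever viability, T/C is given: percent viability relative to DMSO vehicle control taken as 100%.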

`C=CC(=O)N1CCN(c2nc(=O)n(-c3c(C)ccnc3C(C)C)c3nc(-c4c(O)cccc4F)c(F)cc23)C(C)C1` (stereo unspecified) + Nc1ccc(C#CCN(C(=O)Cc2ncc(C(F)(F)F)cc2C(F)(F)F)c2ccc(F)cc2)nn1 gave an IC50 [1] greater than 10 µM, an IC50 [2] greater than 10 µM and an IC50 [3] greater than 10 µM. It also gave an IC50 [4] greater than 10 µM, an IC50 [5] greater than 10 µM and an IC50 [6] greater than 10 µM. For the same compound, the viability, T/C [7] was 102%, the viability, T/C [8] was 91.5% and the viability, T/C [9] was 103%. It also gave a viability, T/C [10] of 94.7%, a viability, T/C [11] of 114% and a viability, T/C [12] of 96.1%. The viability, T/C [13] was 90%, the viability, T/C [14] was 89.1% and the viability, T/C [15] was 104%. The viability, T/C [16] was 98.7%, the viability, T/C [17] was 92% and the viability, T/C [18] was 91.7%. It also gave a viability, T/C [19] of 95.4%, a viability, T/C [20] of 93.5% and a viability, T/C [21] of 90.2%. It also gave a viability, T/C [22] of 86.4%, a viability, T/C [23] of 94.1% and a viability, T/C [24] of 100%. It also gave a viability, T/C [25] of 89.2%, a viability, T/C [26] of 85.5% and a viability, T/C [27] of 99.6%. For the same compound, the viability, T/C [28] was 93%, the viability, T/C [29] was 98.8% and the viability, T/C [30] was 103%. The viability, T/C [31] was 91.9%, the viability, T/C [32] was 90.9% and the viability, T/C [33] was 101%. For the same compound, the viability, T/C [34] was 90.3%, the viability, T/C [35] was 95% and the viability, T/C [36] was 93.3%. The viability, T/C [37] was 88.3%, the viability, T/C [38] was 91.4% and the viability, T/C [39] was 93.3%. It also gave a viability, T/C [40] of 91.4%, a viability, T/C [41] of 94.9% and a viability, T/C [42] of 98.2%.

Work on `COc1cc2cc(C(=O)CCC(=O)O)sc2cc1OC` + Nc1ccc(C#CCN(C(=O)Cc2ncc(C(F)(F)F)cc2C(F)(F)F)c2ccc(F)cc2)nn1 yielded an IC50 [1] greater than 10 µM, an IC50 [2] greater than 10 µM and an IC50 [3] greater than 10 µM. For the same compound, the IC50 [4] was greater than 10 µM, the IC50 [5] was greater than 10 µM and the IC50 [6] was greater than 10 µM. The viability, T/C [7] was 84.3%, the viability, T/C [8] was 97.2% and the viability, T/C [9] was 87.6%. For the same compound, the viability, T/C [10] was 93.6%, the viability, T/C [11] was 93.9% and the viability, T/C [12] was 82.7%. It also gave a viability, T/C [13] of 93.9%, a viability, T/C [14] of 86% and a viability, T/C [15] of 91.8%. For the same compound, the viability, T/C [16] was 85.5%, the viability, T/C [17] was 104% and the viability, T/C [18] was 92.7%. The viability, T/C [19] was 101%, the viability, T/C [20] was 82.6% and the viability, T/C [21] was 93.7%. The viability, T/C [22] was 93.3%, the viability, T/C [23] was 85.6% and the viability, T/C [24] was 96%. It also gave a viability, T/C [25] of 94.8%, a viability, T/C [26] of 84% and a viability, T/C [27] of 96.3%. It also gave a viability, T/C [28] of 87.8%, a viability, T/C [29] of 96.4% and a viability, T/C [30] of 85.3%. The viability, T/C [31] was 98.9%, the viability, T/C [32] was 83.4% and the viability, T/C [33] was 82.4%. For the same compound, the viability, T/C [34] was 105%, the viability, T/C [35] was 90.1% and the viability, T/C [36] was 104%. It also gave a viability, T/C [37] of 96.2%, a viability, T/C [38] of 89.6% and a viability, T/C [39] of 86.4%. It also gave a viability, T/C [40] of 89.3%, a viability, T/C [41] of 84.9% and a viability, T/C [42] of 93.5%.

For `O=C(Nc1ccc(O)c(NS(=O)(=O)c2ccc(F)cc2)c1)c1ccc(-c2ccccc2)cc1`, the viability, T/C (compound 0.0316 µM) was 98.6% and 86.4% and 88.8%, the viability, T/C (compound 0.1 µM) was 96% and 86.4% and 90.7% and the viability, T/C (compound 0.316 µM) was 97.9% and 93.9% and 76.7%. The viability, T/C (compound 1 µM) was 105% and 82.9% and 109%, the viability, T/C (compound 3.16 µM) was 91.6% and 97.1% and 84.3% and the viability, T/C (compound 10 µM) was 77.9% and 78.2% and 65.2%. It also gave an IC50 (curve of compound) greater than 10 µM.
